The test system of data set [1] is nuclease Bal 31. As to the kind of experiment: Nuclease resistance-imparting ability for natural (P=O form) oligonucleotide. The data set is classed as biochemical. The note with it: 2 U Bal 31, 30° C., 60 minutes. As for the experimental part: Nuclease resistance-imparting ability for natural (P═O form) oligonucleotide was evaluated. To be more specific, 2 U of nuclease Bal 31 (manufactured by Takara Shuzo) was added to 20 mM Tris-HCl buffer (pH=8) containing 50 μM of the peptide of SEQ ID NO: 1 prepared in Example 1, 3 μM of P═O form oligonucleotide prepared in Example 6, 150 mM NaCl, 12 mM MgCl2, and 12 mM CaC12, and the reaction was allowed to take place at 30° C. for 60 minutes. Next, the oligonucleotide which escaped from the decomposition was extracted with phenol/chloroform, and subjected to electrophoresis by the procedure described in Example 8 to stain the oligonucleotide.

The test system of data set [2] is A549 cell. The data set is described as follows: Luciferase-expressing plasmid introduction into A549 cell. The format is cell-based, human. The text has this: A cell line established from monkey kidney (Vero cell) and a human bladder cancer cell (T24 cell) purchased from American Type Culture Collection (ATCC) and human lung cancer cell (A549 cell) purchased from Dainippon Pharmaceutical were inoculated on a 24 well culture plate (manufactured by NALGEN NUNC) at 1×10^5 cells/well. Vero cell and A549 cell were cultivated in DMEM (manufactured by Life Technologies Oriental) supplemented with 10% fetal bovine serum (hereinafter referred to as FBS, manufactured by NICHIREI), and T24 cell was cultivated in McCoy's 5a (manufactured by Life Technologies Oriental) supplemented with 10% FBS in 5% CO2 atmosphere at 37° C. for 24 hours. […] The luciferase activity expressed in the cell was then measured by the method instructed in luciferase assay system (manufactured by Promega). […]
20 μL of this cell lysate and 100 μL of the Luciferase Assay Reagent II attached to the kit was added to a fluorescence-measuring plate (Microlite™ 1 plate, manufactured by Dynatech), and after mixing, fluorescence was measured for 1 second by using a multilabel counter (ARVO™ SY1420 MULTILABEL COUNTER, manufactured by Wallac Beltold. […]

The nature of data set [3]: Measurement of CD spectrum with and without SDS. The format is physicochemical. The note with it: 10 mM phosphate buffer pH 7, 50 mM NaCl, 35° C. As for the experimental part: The peptide dissolved in 10 mM phosphate buffer (pH=7) containing 50 mM NaCl was evaluated for its CD spectrum in the presence and in the absence of 5 mM SDS by using a circular dichroism spectrophotometer (J-500A, manufactured by JASCO). The cell length was 1 mm. The measurement was conducted at 35° C. for 6 times in total.

Data set [4] has as its system 21mer oligonucleotide. As to the kind of experiment: Binding ability to oligonucleotide (gel electrophoresis). The note with it: charge ratio (±ratio) of 10. As for the experimental part: The 21mer oligonucleotide prepared by the procedure described in Example 6 (final concentration, 6.7 μM) and the peptide prepared by the procedure described in Examples 1 to 3 were mixed in 20 mM Tris-HCl buffer (pH=7.2) containing 150 mM NaCl at a charge ratio (±ratio) of 0 to 10, and the mixture was allowed to stand at 37° C. for 30 minutes. Next, 7.5 μL of this solution was mixed with an equal amount of Tris-borate buffer (pH=8.2) containing 80% formamide, and electrophoresis was conducted on 25% polyacrylamide gel containing 7M urea. After the electrophoresis, the gel was stained with 5% aqueous solution of Stains all (manufactured by Funakoshi) containing 50% formamide and washed with water to thereby determine the binding of the oligonucleotide and the peptide.
The ±ratio (charge ratio) indicated in FIG. 10 is the ratio of the number (+) of the positively-charged groups in the peptide to the number (−) of negatively-charged groups in the nucleic acid. As evident in FIG. 10, the amount of oligonucleotide that became bound to the peptide increased with the increase in the charge ratio (±ratio), and the oligonucleotide was fully bound to the peptide at a charge ratio (±ratio) of 10. The peptides of SEQ ID NO: 2 to SEQ ID NO: 24 were also found to bind at a charge ratio (±ratio) of 10.

Consider “TRYLRIHPRSWVHQIALRLRYLRIHPRSWVHQIALRS [SEQ ID NO: 1]”, for which the “Nuclease resistance-imparting ability for natural (P=O form) oligonucleotide” value in data set [1] was “exhibit nuclease resistance-imparting ability”. In addition, the Luciferase activity in data set [2] was 8.7 × 10^4 cps/mg protein. Further, in data set [3] (5 mM SDS), the “α-helix structure in CD spectroscopy in the presence of SDS” value was “are in α-helix structure in the presence of SDS”. Further, the “α-helix structure in CD spectroscopy in the absence of SDS” value in data set [3] (no SDS) was “do not take α-helix structure in an aqueous solution solely containing an inorganic salt”. Also, the “Binding of oligonucleotide to the peptide” value in data set [4] is “fully bound”.

Values taken from US20050277586A1, “Peptide chemically modified with polyethylene glycol” (priority 2002, published 2005).
